Experimental data from publication PMC12366525, “Characterization of allosteric modulators that disrupt androgen receptor co-activator protein-protein interactions to alter transactivation–Drug leads for metastatic castration resistant prostate cancer” (SLAS discovery : advancing life sciences R & D, 2023).
pIC50: −log10 of the molar value. Where two headings read alike, the source gives them in different places.

Experiments:
Assay type in all cases: cell-based
[1] = system: 22Rv1 cells; experiment: Prostate cancer cell line growth inhibition assay, 22Rv1; conditions: read-out: 22Rv1 GI50 (AR+)
Method: (§1) The PC-3, DU-145, LNCaP, C4–2, and 22Rv1 PC cell line growth inhibition assays have been described previously. On day 1, each PC cell line was harvested, counted, and seeded into two 384-well assay plates, a time zero (T0) and a time 72 h (T72) plate. PC cell lines were all seeded at 1000 cells per well in 45 μL of tissue culture media in uncoated white clear bottom 384-well assay plates (VWR, # 82050–076) using a Matrix electronic multichannel pipette (Thermo Fisher Scientific, Waltham, MA) and cultured overnight at 37 °C, 5% CO2, and 95% humidity. On day 2, 25 μL of the Cell Titer Glo (CTG) (Promega Corporation, Madison, WI) detection reagent was dispensed into the wells of the T0 assay plate using a Matrix electronic multichannel pipette, and the RLUs were captured on the SpectraMax M5e (Molecular Devices LLC, Sunnyvale, CA) microtiter plate reader. Also on day 2, 5 μL of compounds were transferred into the test wells of the T72 384-well assay plates which were returned to the incubator for 72 h. Control wells received DMSO alone. On day 5, 25 μL of the CTG detection reagent was dispensed into the wells of the T72 assay plate using a Matrix electronic multichannel pipette, and the RLU’s were captured on the SpectraMax M5e microtiter plate reader platform.
(§2) In 384-well assays, DMSO minimum (n = 32) and maximum (n = 32) plate control wells were utilized to calculate signal-to-background ratios (S:B) and Z’-factor coefficient assay performance quality control statistics, and to normalize the signals of compound treated wells and to represent 0% and 100% respectively. For the 96-well AR-LBD H^3-DHT radioligand binding assay, eight minimum and maximum plate control wells were utilized to normalize the data. For the PC cell line growth inhibition assays we used the DMSO control data from the T0 and T72 assay plates to assess the dynamic range of the T0 to T72 cell growth, and to calculate S:B ratios and Z’-factor coefficient statistics for the assay signal window (T0 to T72). To normalize the 72 h compound exposure PC growth inhibition data, the signals from the compound treated wells were processed and expressed as% of the T72 DMSO plate controls. IC50 and GI50 values for each of the bioassays were calculated using Graph-Pad Prism 9 software to plot and fit data to curves using the Sigmoidal dose response variable slope equation Y = Bottom + [Top-Bottom]/ [1 + 10^^(LogEC50-X)*HillSlope].

[2] = M2H viability counter screen; conditions: human, HEK 293 cells; cytotoxicity counter screen; read-out: M2H viability CS GI50
[3] = system: DU-145 cells; experiment: Prostate cancer cell line growth inhibition assay, DU-145; conditions: read-out: DU145 GI50 (AR−)
Method: as §1, §2

[4] = biological target: T1, AR-LBD and TIF2 (Homo sapiens, UniProt P10275); experiment: TIF2 mammalian 2-hybrid (M2H) assay; conditions: for pIC50: HEK 293 cells, 25 nM DHT, 27 h compound exposure, read-out: M2H AR-TIF2 CoA Recruitment IC50
T1 construct: AR-LBD amino acids 658–919 expressed as a fusion protein with Gal4-DBD; expressed in transfected cells; host or cells: HEK 293
T1 sequence (P10275 658-919): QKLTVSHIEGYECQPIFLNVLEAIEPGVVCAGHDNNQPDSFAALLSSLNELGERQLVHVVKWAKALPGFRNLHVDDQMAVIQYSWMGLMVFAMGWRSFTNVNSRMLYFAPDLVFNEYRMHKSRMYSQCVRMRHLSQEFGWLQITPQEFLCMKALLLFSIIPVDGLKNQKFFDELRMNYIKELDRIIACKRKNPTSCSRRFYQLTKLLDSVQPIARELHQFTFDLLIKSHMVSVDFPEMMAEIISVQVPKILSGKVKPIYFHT
Excerpt: The 5xGAL4-TATA-luciferase reporter plasmid was a gift from Dr. Richard Maurer from the Oregon Health and Science University, and constructs pGAL4-hAR-658–919 (AR-LBD amino acids 658–919 expressed as a fusion protein with Gal4-DBD), pVP16-SRC1 (full--length SRC1 expressed as a fusion with VP16 activation domain) and pVP16-Empty vector were kindly provided to us by Dr. Elizabeth Wilson, from UNC Chapel Hill. pVP16-TIF2 was generated as described previously. HEK 293 cells were transiently co-transfected with 5 ng of pGal4-AR-LBD, 10 ng of either pVP16-TIF2 or pVP16-SRC1, and 20 ng of the 5xGal4-TATA-Luc reporter as described previously. HEK 293 cells were bulk co-transfected with the three plasmids that had been individually incubated with Fugene 6 at a 3:1 ratio for 25 min at room temperature (RT) in serum free media (SFM) and then combined with HEK 293 cells that were suspended in DMEM (Cellgro10013CV) with 2 mM L-glutamine (Invitrogen) that was supplemented with 10% fetal bovine serum, and 5000 cells in a volume of 40 μL were seeded into the wells of white opaque 384-well assay plates (Greiner Bio-one, #781080) and cultured overnight at 37 °C, 5% CO2, and 95% humidity. […] 25 μL of BrightGlo® reagent was added to the plate and the relative luminescence units (RLUs) were captured on a SpectraMax M5e microtiter plate reader (Molecular Devices, LLC, San Jose, CA).

[5] = system: U-2 OS cells; experiment: AR-TIF2 PPIB cell loss (Hoechst stained nuclei); conditions: 4.5 h compound exposure
Method: The AR-TIF2 PPIB HCS assay was performed in U-2 OS osteosarcoma cells as described previously. Briefly, U-2 OS cells were coinfected with recombinant adenovirus biosensor expression constructs and seeded at 2500 cells per well in 384-well collagen-coated microplates (Greiner BioOne #781956) and plates were incubated overnight at 37°C in 5% CO2 and 95% humidity. […] After the appropriate time, assay plates were fixed by transfer of 50 μL of pre-warmed (37°C) 7.4% formaldehyde and 2 μg/mL Hoechst 33342 in PBS and incubation at room temperature for 30 min. Liquid was aspirated, plates were washed twice with 85 μL PBS, leaving the final wash in the plate. Plates were sealed with adhesive aluminum plate seals, and fluorescent images of three fields of view were acquired in the DAPI (Hoechst stained nuclei), FITC (TIF2-GFP) and Texas Red (AR-RFP) channels on an ImageXpress Micro (IXM) automated HCS platform (Molecular Devices LLC, Sunnyvale, CA) using a 10X Plan Fluor 0.3 NA objective. Images were analyzed using the Translocation Enhanced (TE) image analysis module of the MetaXpress software as described previously.

[6] = system: PC cell lines positive (LNCaP, C4–2, & 22Rv1 cells) or negative (PC-3 & DU-145) for AR; experiment: Prostate cancer cell line growth inhibition assays, panel statements; conditions: 72 h
Method: as §1, §2

[7] = PC-3-ARV7-GFP viability counter screen; conditions: human, PC3-AR-V7-GFP cells; cytotoxicity counter screen; read-out: PC-3-ARV7-GFP viability CS GI50
[8] = system: C4–2 cells; experiment: Prostate cancer cell line growth inhibition assay, C4–2; conditions: read-out: C4–2 GI50 (AR +)
Method: as §1, §2

[9] = LNCaP, C4–2, 22Rv1, read-out: GI50s in AR positive PC cell lines

| GI50 ([1]; Homo sapiens, 22Rv1, 72 h) | GI50 ([3]; Homo sapiens, DU-145, 72 h) | pIC50 [4] | AR-TIF2 PPIB Cell Loss [5] | GI50 [6, 9] | GI50 ([8]; C4-2, 72 h) | GI50 ([1]; 72 h) | GI50 ([3]; 72 h) | GI50 ([8]; 72 h) | CoA selectivity, lower IC50 for TIF2 than SRC1 ([4]; M2H assays) | GI50 ([6]; Homo sapiens, PC-3, DU-145, read-out: GI50s in AR negative PC cell lines) | SMILES | GI50 [2] | GI50 [7] | Cytotoxicity in AR positive relative to AR negative PC cell lines [6] |
| --- | --- | --- | --- | --- | --- | --- | --- | --- | --- | --- | --- | --- | --- | --- |
| 55.5 µM | > 100 µM | 5.24 | >100 µM | 29 to 56 µM | 31.7 µM |  |  |  |  |  | Cc1ccccc1-c1cc(O)c2c(c1)CN(c1nc(C(N)=O)cs1)CCO2 [S1–1] | 58.6 µM | > 100 µM |  |
|  |  | 5.13 | >100 µM |  |  | 75.2 µM | > 100 µM | 45.5 µM |  |  | Cc1ccccc1-c1cc(O)c2c(c1)CN(c1nccs1)CCO2 [S1–3] |  |  | exhibited differential cytotoxicity in AR positive PC cell lines |
| 17.6 µM | > 100 µM | 7.10 | >100 µM | 14 to 19 µM | 14.1 µM |  |  |  | ~ 5 fold | > 100 µM | Cc1nsc(NC(=O)N2CCC(Sc3ccccc3C)CC2)n1 [S2–6] | > 100 µM | > 100 µM | exhibited differential cytotoxicity in AR positive PC cell lines |
| 15 µM | 18 µM | 5.20 | >100 µM |  | 7.93 µM |  |  |  |  |  | Cc1c(-c2ccccc2F)[nH]c2ccc(CNC(=O)CCc3cn[nH]c3)cc12 [S3–11] | 69.2 µM | > 100 µM | exhibited differential cytotoxicity in AR positive PC cell lines relative to AR negative cell lines |
| 20.5 µM | 6.82 µM | 5.26 | >100 µM |  | 1.92 µM |  |  |  |  |  | Cc1c(-c2ccccc2F)[nH]c2ccc(CNC(=O)CCc3cnccn3)cc12 [S3–12] | > 100 µM | > 100 µM | roughly equipotent against all 5 PC cell lines |
| > 100 µM | > 100 µM | 4.74 | >100 µM |  | 69.8 µM |  |  |  |  |  | CC(=O)NCCC(=O)NCc1ccc2[nH]c(-c3ccccc3F)c(C)c2c1 [S3–13] | > 100 µM | > 100 µM | roughly equipotent against all 5 PC cell lines |
| 102 µM | > 100 µM | 5.61 | >100 µM |  | 33 µM |  |  |  |  |  | Cc1c(-c2ccccc2F)[nH]c2ccc(CNC(=O)c3ccc(CO)o3)cc12 [S3–14] | > 100 µM | > 100 µM | exhibited differential cytotoxicity in AR positive PC cell lines relative to AR negative cell lines |
| 17.4 µM | 24.3 µM | 5.48 | >100 µM |  | 16.8 µM |  |  |  |  |  | Cc1c(-c2ccc(F)cc2)[nH]c2ccc(CNC(=O)c3ccc(CO)o3)cc12 [S3–15] | > 100 µM | > 100 µM | roughly equipotent against all 5 PC cell lines |
